# Data from patent publication US4349667A, “Aminoglycoside antibiotic G-367-2” (Toyo Jozo Kabushiki Kaisha, priority 1979, dated 1982).
# How the values were obtained:
# Assay type in all cases: cell-based
# [1] = tested on: Bacillus subtilis ATCC 6633; test: antimicrobial spectrum (MIC) by agar dilution method; details: ATCC6633, read-out: minimum inhibitory concentration, MIC
# From the text: (§1) The antimicrobial spectrum (minimum inhibitory concentration, MIC) of G-367-2 by agar dilution method is as follows: […]
# [2] = tested on: Citrobacter freundii GN346; test: as above; details: GN346, read-out: minimum inhibitory concentration, MIC
# From the text: as §1
# [3] = tested on: Enterobacter aerogenes 0655; test: as above; details: Klebsiella aerogenes, read-out: minimum inhibitory concentration, MIC
# From the text: as §1
# [4] = tested on: Enterobacter cloacae GN336; test: as above; details: read-out: minimum inhibitory concentration, MIC
# From the text: as §1
# [5] = tested on: Escherichia coli NIHJ-JC2; test: as above; details: NIHJJC2, read-out: minimum inhibitory concentration, MIC
# From the text: as §1
# [6] = tested on: Escherichia coli W3630 RGN14; test: as above; details: W3630RGN14, read-out: minimum inhibitory concentration, MIC
# From the text: as §1
# Escherichia coli W3630 = test: as above; details: read-out: minimum inhibitory concentration, MIC
# From the text: as §1
# [7] = tested on: Klebsiella pneumonia ATC 10031; test: as above; details: Klebsiella pneumoniae, ATC10031, read-out: minimum inhibitory concentration, MIC
# From the text: as §1
# Proteus morganii 0239 = test: as above; details: Morganella morganii, read-out: minimum inhibitory concentration, MIC
# From the text: as §1
# Proteus rettgeri ACR = test: as above; details: Providencia rettgeri, read-out: minimum inhibitory concentration, MIC
# From the text: as §1
# [8] = tested on: Pseudomonas aeruginosa 1946; test: as above; details: read-out: minimum inhibitory concentration, MIC
# From the text: as §1
# [9] = tested on: Pseudomonas aeruginosa 2512; test: as above; details: read-out: minimum inhibitory concentration, MIC
# From the text: as §1
# [10] = tested on: Pseudomonas aeruginosa IAM1095; test: as above; details: read-out: minimum inhibitory concentration, MIC
# From the text: as §1
# [11] = tested on: Pseudomonas aeruginosa ML4561 RP4; test: as above; details: ML4561RP4, read-out: minimum inhibitory concentration, MIC
# From the text: as §1
# [12] = tested on: Pseudomonas aeruginosa ML4561 Rms164-1; test: as above; details: ML4561RMS1641, read-out: minimum inhibitory concentration, MIC
# From the text: as §1
# [13] = tested on: Pseudomonas aeruginosa ML4561 Rms166; test: as above; details: ML4561RMS166, read-out: minimum inhibitory concentration, MIC
# From the text: as §1
# [14] = tested on: Pseudomonas aeruginosa ML4561; test: as above; details: ML4561, read-out: minimum inhibitory concentration, MIC
# From the text: as §1
# [15] = tested on: Pseudomonas maltophilia 1850; test: as above; details: Stenotrophomonas maltophilia, read-out: minimum inhibitory concentration, MIC
# From the text: as §1
# Pseudomonas putida 1842 = test: as above; details: read-out: minimum inhibitory concentration, MIC
# From the text: as §1
# [16] = tested on: Salmonella enteritidis Gartner; test: as above; details: Salmonella enterica, read-out: minimum inhibitory concentration, MIC
# From the text: as §1
# Serratia marcescens = test: as above; details: read-out: minimum inhibitory concentration, MIC
# From the text: as §1
# Shigella sonnei E33 = test: as above; details: read-out: minimum inhibitory concentration, MIC
# From the text: as §1
# [17] = tested on: Staphylococcus aureus 0119; test: as above; details: read-out: minimum inhibitory concentration, MIC
# From the text: as §1
# [18] = tested on: Staphylococcus aureus ATCC 6538P; test: as above; details: ATCC6538P, read-out: minimum inhibitory concentration, MIC
# From the text: as §1
# [19] = tested on: Staphylococcus aureus MS 27; test: as above; details: MS27, read-out: minimum inhibitory concentration, MIC
# From the text: as §1
# [20] = tested on: Staphylococcus epidermidis sp-al-1; test: as above; details: SPAL1, read-out: minimum inhibitory concentration, MIC
# From the text: as §1
# [21] = tested on: Streptococcus pyogenes N.Y.5; test: as above; details: read-out: minimum inhibitory concentration, MIC
# From the text: as §1
# Gram negative bacteria = test: antibacterial effect against Gram negative bacteria
# From the text: as §1
smiles,measurement,setting,value
CNC1C(O)C(OC2C(N)CC(N)C(OC3OC(CN)=CCC3N)C2O)OCC1(C)O (stereo not shown) [G-367-2],MIC,[1],1.6 µg/mL
same,MIC,[2],3.1 µg/mL
same,MIC,[3],1.6 µg/mL
same,MIC,[4],1.6 µg/mL
same,MIC,[5],3.1 µg/mL
same,MIC,[6],1.6 µg/mL
same,MIC,Escherichia coli W3630,1.6 µg/mL
same,MIC,[7],1.6 µg/mL
same,MIC,Proteus morganii 0239,6.3 µg/mL
same,MIC,Proteus rettgeri ACR,3.1 µg/mL
same,MIC,[8],> 100 µg/mL
same,MIC,[9],> 100 µg/mL
same,MIC,[10],25 µg/mL
same,MIC,[11],6.3 µg/mL
same,MIC,[12],50 µg/mL
same,MIC,[13],> 100 µg/mL
same,MIC,[14],125 µg/mL
same,MIC,[15],> 100 µg/mL
same,MIC,Pseudomonas putida 1842,> 100 µg/mL
same,MIC,[16],3.1 µg/mL
same,MIC,Serratia marcescens,50 µg/mL
same,MIC,Shigella sonnei E33,3.1 µg/mL
same,MIC,[17],12.5 µg/mL
same,MIC,[18],12.5 µg/mL
same,MIC,[19],12.5 µg/mL
same,MIC,[20],1.6 µg/mL
same,MIC,[21],6.3 µg/mL
same,antibacterial effect,Gram negative bacteria,strong antibacterial effect
